Experimental data as given in patent US20110263693A1, “CELASTROL, GEDUNIN, AND DERIVATIVES THEREOF AS HSP90 INHIBITORS” (DANA-FARBER CANCER INSTITUTE, INC., priority 2006, published 2011).

Legend:
LNCaP cells [1] = test: Adherent cell growth by luminescent assay of ATP level (CellTiterGlo); type: cell-based; details: for LNCaP cell viability at higher concentrations: in the presence of androgen, above EC50 of androgen signaling inhibition; for adherent growth of androgen-stimulated LNCaP cells: luminescent assay of ATP levels
Method: To investigate the cellular consequences of celastrol- and gedunin-mediated inhibition, we assessed whether celastrol and gedunin activity results in decreased cell growth, consistent with AR inhibition. […] Second, the compounds' effects on anchorage-independent growth of LNCaP cells was assayed in soft agar (FIG. 6D).
(§1) Adherent cell growth was measured by luminescent assay of ATP level (CellTiterGlo, Promega). LNCaP cells were grown in charcoal-stripped media for 2 days prior to simultaneous treatment with 1 nM R1881 and the relevant compound. Synergy was assessed by analyzing the IC50 of one drug over a range of concentrations of the other drug and vice versa. The resulting concentration pairs were visualized by isobologram (Gessner, 1995). Anchorage independence was measured by soft agar assay (Hahn et al., 1999). Compounds were added to both agar layers. Colonies were scored after 3 weeks.
(§2) We also addressed whether celastrol and gedunin activity results in decreased cell growth consistent with inhibition of AR and other HSP90 clients. […] Below this concentration, an intermediate viability inhibition is seen.

AR = test: Western blot of AR protein level; type: cell-based; details: for concentration at and above which AR levels are decreased / concentration giving almost complete ablation of AR levels: LNCaP cells, 24 hr
Method: We first asked whether celastrol and gedunin decrease the levels of AR itself. […] Celastrol decreased AR levels in LNCaP cells at 0.5 μM and above, while gedunin decreases their levels at 10 μM and above. […] These concentration-dependent effects on AR are consistent with the observed inhibitory effects on AR-mediated signaling.

FLT3 = test: Western blot of HSP90 client FLT3 level; type: cell-based, human; details: for protein level of FLT3: 24 hr, several cell lines, concentration-dependent
Method: (§3) To more broadly establish the effects of celastrol and gedunin on the HSP90 pathway, we tested whether these compounds decrease the protein levels of other HSP90 clients.
(§4) Celastrol (Calbiochem) and gedunin (Gaia Chemicals) were solubilized in DMSO. LNCaP.FGC cells (ATCC) were grown in RPMI 1640 (ATCC) with 10% FBS. Ba/F3 cells stably expressing human FLT3, EGFR, and BCR-ABL1 were grown in RPMI 1640, 10% FBS, and 2 ng/ml IL-3. SKBr3 cells were grown in a 1:1 DME:F12 plus 10% FBS.

EGFR = test: Western blot of HSP90 client EGFR level; type: cell-based, human; details: 24 hr, several cell lines, concentration-dependent
Method: as §3, §4

BCR-ABL1 = test: Western blot of HSP90 client BCR-ABL1 level; type: cell-based, human; details: for protein level of BCR-ABL1: 24 hr, several cell lines, concentration-dependent
Method: as §3, §4

[2] = tested on: androgen signaling signature in LNCaP cells; test: Synergy with HSP90 inhibitors on the androgen signaling signature (isobologram); type: cell-based; details: 24 hr, isobologram analysis
From the text: (§5) If celastrol and gedunin act on HSP90 function via a distinct mechanism from HSP90 ATP-binding site inhibition (Bagatell et al., 2005), they might act synergistically with existing HSP90 inhibitors. We therefore tested the combinatorial effects of these compounds with HSP90 inhibitors on HSP90 client signaling and viability. […] Celastrol and gedunin therefore act synergistically with existing modes of HSP90 ATP-binding site inhibition to inhibit HSP90 client signaling and viability in a cellular context, consistent with their inhibition of HSP90 via a distinct mechanism.
as §1

LNCaP cells [3] = test: Synergy with HSP90 inhibitors on cell growth by ATP level (isobologram); type: cell-based; details: 24 hr, low concentrations
From the text: as §5, §1

HSP90 = HSP90 conformational change assay (bis-ANS); type: binding; details: purified HSP90 200 nM, bis-ANS 50 μM
Method: The final volume in each well was 100 μL. The plate was covered with foil and mixed for 30 s on a plate shaker before incubation for 60 min. at 37° C. Relative fluorescence units were measured using a SpectraMx Gemini XS spectrofluorometer (Molecular Devices Corporation, Sunnyvale, Calif.) at an excitation wavelength for bis-ANS of 393 nm and an emission wavelength of 484 nm. The data were acquired using the SOFTmaxPRO software (Molecular Devices Corporation, Sunnyvale, Calif.).

[4] = tested on: LNCaP prostate cancer cell; test: Apoptosis induction in LNCaP cells; type: cell-based; details: at higher concentrations
From the text: as §2

[5] = tested on: SKBR breast cancer cell line; test: Apoptosis induction in SKBR cells; type: cell-based; details: to a greater extent than existing HSP90 ATP binding site inhibitors
HSP90α = HSP90α (Homo sapiens, UniProt P07900); test: Geldanamycin competition assay (Cy3B-geldanamycin fluorescence polarization); type: binding; set-up: purchased Stressgen SPP776 / SPP-776; details: celastrol and gedunin at concentrations up to ~100 μM
Method: We first tested whether celastrol or gedunin could compete with Cy3B-geldanamycin for binding to the ATP-binding pocket of purified HSP90α by fluorescence polarization assay (Kim et al., 2004, Llauger-Bufi et al., 2003).
The geldanamycin competition assay was performed as described (He et al., 2006, Kim et al., 2004), except that Cy3B-geldanamycin rather than BODIPY-geldanamycin was used as described herein.
Measurements were taken in black 96-well microtiter plates (Coming #3650). The assay buffer (HFB) contained 20 mM HEPES (K) pH 7.3, 50 mM KCl, 5 mM MgCl2, 20 mM Na2MoO4, 0.01% NP40. Before each use, 0.1 mg/mL bovine gamma globulin (BGG) (Panvera Corporation, Madison, Wis.) and 2 mM DTT (Fisher Biotech, Fair Lawn, N.J.) were freshly added. GM-cy3B was synthesized as previously reported and was dissolved in DMSO to form 10 μM solutions. Cell lysates were prepared rupturing cellular membranes by freezing at −70° C. and dissolving the cellular extract in HFB with added protease and phosphotase inhibitors. Saturation curves were recorded in which GM-cy3B (3 nM) was treated with increasing amounts of cellular lysates.

[6] = tested on: androgen signaling signature in LNCaP cells; test: GE-HTS androgen signaling signature assay / screen; details: LNCaP; for effect on the GE-HTS androgen signaling signature outside the screen: with and without 12 hours androgen pretreatment
[7] = Ba/F3 cells, relative to non-mutant

Structure (SMILES) | LNCaP cell viability at higher concentrations (LNCaP cells [1]) | adherent growth of androgen-stimulated LNCaP cells (LNCaP cells [1]) | concentration at and above which AR levels are decreased (AR) | concentration giving almost complete ablation of AR levels (AR) | protein level of FLT3 (FLT3) | protein level of EGFR (EGFR) | protein level of BCR-ABL1 (BCR-ABL1) | combined effect with geldanamycin and 17-AAG on the androgen signaling signature [2] | combined effect with geldanamycin and 17-AAG on cell growth (ATP level) (LNCaP cells [3]) | inhibition of HSP90 conformational changes induced by bis-ANS (HSP90) | apoptosis in LNCaP cells [4] | apoptosis in SKBR breast cancer cell line [5] | competition with Cy3B-geldanamycin for binding to the ATP-binding pocket of HSP90α (HSP90α) | effect on the GE-HTS androgen signaling signature outside the screen [6] | inhibition of the androgen signaling signature in the GE-HTS screen (strong / weak) ([6]; ~20 μM, 24 hr) | AR protein by immunoblotting (AR; gedunin-treated LNCaP cells) | sensitivity of FLT3 internal tandem duplication (ITD) mutant to inhibition (FLT3; [7]) | sensitivity of BCR-ABL T315I point mutant to inhibition (BCR-ABL1; [7])
CC1=C(O)C(=O)C=C2C1=CC=C1[C@@]2(C)CC[C@@]2(C)[C@@H]3C[C@](C)(C(=O)O)CC[C@]3(C)CC[C@]12C [celastrol] | markedly decrease LNCaP prostate cancer cell viability | inhibit adherent and anchorage-independent growth | ≥ 0.5 µM | 1 µM | lowered the protein levels | lowered the protein levels | lowered the protein levels | mild synergy | synergistically inhibit cell growth | binds purified HSP90 in vitro | induce apoptosis | induct apoptosis | Neither celastrol nor gedunin significantly competed | inhibit the GE-HTS androgen signaling signature in a concentration-dependent manner | strong inhibition |  |  | 
CC(=O)O[C@@H]1C[C@H]2C(C)(C)C(=O)C=C[C@]2(C)[C@H]2CC[C@@]3(C)[C@H](c4ccoc4)OC(=O)[C@H]4O[C@]43[C@@]21C [gedunin] | markedly decrease LNCaP prostate cancer cell viability | inhibit adherent and anchorage-independent growth | ≥ 10 µM | 20 µM | lowered the protein levels | lowered the protein levels | lowered the protein levels | mild synergy | synergistically inhibit cell growth | the effect is not well seen | induce apoptosis | induct apoptosis | Neither celastrol nor gedunin significantly competed | inhibit the GE-HTS androgen signaling signature in a concentration-dependent manner |  | nearly entirely eliminated | increased sensitivity | increased sensitivity
